In ChEMBL document CHEMBL4334430, “A cell-based screening system for RNA polymerase I inhibitors” (Medchemcomm, 2019):
Activity calls are given as the source filed them. No cut-off for these calls is given here.

Tests used:
[1] = tested on: A2780; assay: Antiproliferative activity against human A2780 cells incubated for 4 days by MTT assay; format: functional, cell-based; conditions: A2780, 96 h
[2] = tested on: Saccharomyces cerevisiae; assay: Inhibition of yeast RNA polymerase 1 in YBR140C cells expressing human RNA polymerase 1 promoter and rRNA assessed as reduction in human rDNA transcription at 390 to 3120 nM by qRT-PCR analysis; format: cell-based
[3] = tested on: NCI-H460; assay: Antiproliferative activity against human H460 cells incubated for 4 days by MTT assay; format: functional, cell-based; conditions: NCI-H460, 96 h
[4] = tested on: Saccharomyces cerevisiae; assay: Inhibition of yeast RNA polymerase 1 in YBR140C cells expressing human RNA polymerase 1 promoter and rRNA assessed as reduction in cell growth at 390 to 1560 nM by UV-spectrophotometric analysis; format: cell-based
[5] = tested on: Saccharomyces cerevisiae; assay: Inhibition of yeast RNA polymerase 1 in YBR140C cells expressing human RNA polymerase 1 promoter and rRNA assessed as reduction in human rDNA transcription at 312 to 2500 nM by qRT-PCR analysis; format: cell-based
[6] = tested on: Saccharomyces cerevisiae; assay: Inhibition of yeast RNA polymerase 1 in YBR140C cells expressing human RNA polymerase 1 promoter and rRNA assessed as reduction in cell growth at 126 to 2500 nM by UV-spectrophotometric analysis; format: cell-based

Row | IC50 [1] [nM] | IC50 [3] [nM] | SMILES | inhibition [2] | inhibition [4] | inhibition [5] | inhibition [6]
1 | 700 | 3500 | COCc1c(C(C)C)nc(C(C)C)c(/C=C/[C@@H](O)C[C@@H](O)CC(=O)O)c1-c1ccc(F)cc1 [CERIVASTATIN SODIUM] | Active | Active |  | 
2 | 120 |  | Cc1cnc(CNC(=O)c2c(=O)c3ccc(N4CCCN(C)CC4)nc3n3c2sc2ccccc23)cn1 [CX-5461] |  |  | Active | Active
